Experimental findings from patent EP0327492A1, “Herbicidally and plantgrowth regulatory active quinoline and pyrindine compounds” (CIBA-GEIGY AG, priority 1988, dated 1989) are described below.

Holding throughout (assay type): in vivo
For one series, the system named is Abutilon. The series is described as follows: Post-emergent herbicidal action, contact herbicide (B.3). The following applies: 500 bis 2000 [g/ha], 15 days after treatment. The method, then:
(§1) Im Gewächshaus wird unmittelbar nach der Einsaat der Versuchspflanzen in Saatschalen die Erdoberfläche mit einer wässrigen Dispersion der Wirkstoffe, erhalten aus einem 25 %igen Emulsionskonzentrat behandelt. Es werden Konzentrationen von 2000-500 g Wirksubstanz/Hektar angewendet. Die Saatschalen werden im Gewächshaus bei 22-25° C und 50-70 % relativer Luftfeuchtigkeit gehalten und der Versuch nach 3 Wochen ausgewertet und die Resultate nach folgender Notenskala ausgewertet. • 1 Pflanze hat nicht gekeimt oder ist eingegangen • 2-3 sehr starke Schäden • 4 starke Schäden • 5 mittlere Schäden, die Pflanzen sind verkümmert • 6 Schäden, die Pflanze kann regenerieren • 7-8 leichte Schäden • 9 normales Wachstum, wie das unbehandelter Pflanzen
(§2) Boniturnoten von 1 bis 4 (insbesondere von 1 bis 3) weisen auf eine gute bis sehr gute Herbizidwirkung hin. Boniturnoten von 6 bis 9 (insbesondere 7 bis 9) weisen auf eine gute Toleranz (insbesondere bei Kulturpflanzen) hin.
(§3) Eine Anzahl Unkräuter, sowohl monokotyle wie dikotyle, werden nach dem Auflaufen (im 4- bis 6-Blattstadium) mit einer wässrigen Wirkstoffdispersion in einer Dosierung von 2000-500 g Wirksubstanz pro Hektar auf die Pflanzen gespritzt und diese bei 24°-26°C und 45-60 % relativer Luftfeuchtigkeit gehalten. 15 Tage nach der Behandlung wird der Versuch nach dem in Beispiel B.2. gegebenen Massstab bewertet.

The next series has as its system Alopecurus myos. Described as above. The following applies: 500 bis 2000 [g/ha], 15 days after treatment. The protocol:
as §1, §2, §3

The test system of a further series is Amaranthus ret. Described as above. Particulars: 500 bis 2000 [g/ha], 15 days after treatment. The protocol: as §1, §2, §3
The next series has as its system Avena fatua. The series is described as above. The following applies: 500 bis 2000 [g/ha], 15 days after treatment. The method, then: as §1, §2, §3
The test system of the next series is Bromus tectorum. The series is described as above. The following applies: 500 bis 2000 [g/ha], 15 days after treatment. The protocol: as §1, §2, §3
In another series the test system is Chenopodium Sp. The description is as above. The following applies: 500 bis 2000 [g/ha], 15 days after treatment. The protocol: as §1, §2, §3
The test system of another series is Chrysanthe. leuc. The series is described as above. Particulars: 500 bis 2000 [g/ha], 15 days after treatment. The method, then:
as §1, §2, §3

In the next series the test system is Digitaria sang. The series is described as above. Particulars: 500 bis 2000 [g/ha], 15 days after treatment. The method, then: as §1, §2, §3
In the next series the test system is Echinochloa crus galli. Described as above. The following applies: 500 bis 2000 [g/ha], 15 days after treatment. The protocol:
as §1, §2, §3

A further series has as its system Galium aparine. Described as above. The following applies: 500 bis 2000 [g/ha], 15 days after treatment. The protocol:
as §1, §2, §3

Another series has as its system Lolium perenne. The series is described as above. Particulars: 500 bis 2000 [g/ha], 15 days after treatment. The method, then: as §1, §2, §3
A further series deals with Sinapis. The series is described as above. Particulars: 500 bis 2000 [g/ha], 15 days after treatment. The method, then: as §1, §2, §3
For a further series, the system named is Solanum nigrum. Described as above. Particulars: 500 bis 2000 [g/ha], 15 days after treatment. The method, then: as §1, §2, §3
Another series has as its system Sorghum halep. Described as above. Particulars: 500 bis 2000 [g/ha], 15 days after treatment. The protocol:
as §1, §2, §3

A further series deals with Stellaria. The description is as above. The following applies: 500 bis 2000 [g/ha], 15 days after treatment. The protocol: as §1, §2, §3
The subject of a further series is Veronica Sp. Described as above. Particulars: 500 bis 2000 [g/ha], 15 days after treatment. The protocol: as §1, §2, §3
A further series concerns Xanthium Sp. Described as above. The following applies: 500 bis 2000 [g/ha], 15 days after treatment. The protocol: as §1, §2, §3
Another series relates to Baumwolle. The series is described as follows: Post-emergent herbicidal action (B.3), crop tolerance. The following applies: 500 bis 2000 [g/ha], 15 days after treatment. The protocol:
as §1, §2, §3

The subject of a further series is Soja. Described as above. Particulars: 500 bis 2000 [g/ha], 15 days after treatment. The method, then:
as §1, §2, §3

The subject of the next series is Untersaaten in Mais. The series is described as follows: Pre-post selectivity: growth inhibition of undersown grasses (post-emergent) versus maize (pre-emergent). From the text:
Verbindungen der Formel I zeigen in vorteilhafter Weise eine "pre-post-Selektivität" bei verscheidenen Gräsern in Maiskulturen.
Die wuchshemmende Wirkung in Gräsern ist in postemergenter Applikation stark ausgeprägt, während bei gleichzeitiger Preemergenter Applikation Maispflanzen in ihrem Wuchs nur geringfügig gehemmt werden. Derartige "pre-post-Selektivitäten" erlauben somit die Aussaat von Mais in Gräsern. Dabei soll der Zeitpunkt für die Applikation der Aktivsubstanz der Formel so gewählt werden, dass die Aktivsubstanz postemergent für die Gräser ober preemergent für den Mais angewendet wird. In den ersten Wochen ist der Zuwachs der Gräser so stark gehemmt, dass die Maispflanze sich ungehindert entfalten kann.
Eine Mischung von Gräsern (z.B. Poa, Festuca, Lolium, Bromus, Cynosurus) werden in 15 cm - Kunststofftöpfen mit steriler Landerde angesät und im Gewächshaus bei einer Tagestemperatur von 21°C und einer Nachttemperatur von 17°C angezogen. Die Beleuchtungsdauer beträgt 13,5 Stunden/Tag bei einer Lichtintensität von mind. 7000 Lux. Nach dem Ablauf werden die Pflanzen wöchentlich auf ca. 6 cm Höhe zurückgeschnitten. Ca. 42 Tage nach der Saat und 1 Tag nach dem letzten Schnitt erfolgt die Applikation mit 60-500 g Wirkstoff/ha als wässrige Spritzbrühe. Die Wasseraufwandmenge ist ca. 500 I/ha.
20 Tage nach der Behandlung wird der Versuch ausgewertet. Hierbei wird die Höhe des Neuzuwachses gemessen und in % Hemmung zum Durchschnitt der unbehandelten Kontrollen dargestellt. Die nekrotischen Schäden sind in % zur gesamten Blattfläche aufgeführt.
Mais der Sorte Blizzard G188 werden in 15 cm - Kunststofftöpfen mit steriler gesiebter Landerde angesät und im Gewächshaus bei einer Tagestemperatur von 22°C und einer Nachttemperatur von 19°C aufgestellt. Die Beleuchtungsdauer beträgt mindestens 13,5 Stunden/Tag bei einer Lichtintensität von mindestens 7000 Lux. 1 Tag nach der Saat erfolgt die Applikation mit 60-500 g Wirkstoff/ha, in der Regel 25 %ig formuliert und in wässriger Spritzbrühe. Die Wasseraufwandmenge ist ca. 200 I/ha.
16 Tage nach der Behandlung wird der Versuch ausgewertet. […]

In the case of `CC1CCc2nc(C3=NC(=O)C(C)(C(C)C)N3)c(C(=O)O)cc21` (stereo not drawn) [Verbindung 2.06, 7H-5,6-Dihydro-2-(5-isopropyl-5-methyl-1 H-imidazol-4-on-2-yl)-5-methyl-1-pyrindin-3-carbonsäure], the Herbizidwirkung result in the series with Abutilon, in the series on Alopecurus myos., in the series with Amaranthus ret., with Avena fatua, with Bromus tectorum and in the series on Chenopodium Sp. was “gute bis sehr gute Herbizidwirkung (Boniturnoten von 1 bis 4 (insbesondere von 1 bis 3) weisen auf eine gute bis sehr gute Herbizidwirkung hin)” throughout. Further, the Herbizidwirkung result in the series with Chrysanthe. leuc., in the series on Digitaria sang., in the series on Echinochloa crus galli, in the series on Galium aparine, with Lolium perenne and with Sinapis was “gute bis sehr gute Herbizidwirkung (Boniturnoten von 1 bis 4 (insbesondere von 1 bis 3) weisen auf eine gute bis sehr gute Herbizidwirkung hin)” throughout. Besides, the Herbizidwirkung entry in the series with Solanum nigrum, in the series on Sorghum halep., in the series with Stellaria, with Veronica Sp. and with Xanthium Sp. was “gute bis sehr gute Herbizidwirkung (Boniturnoten von 1 bis 4 (insbesondere von 1 bis 3) weisen auf eine gute bis sehr gute Herbizidwirkung hin)” each time. Further, the “Toleranz (im Wachstum beeinflusst)” value in the series with Baumwolle and in the series with Soja was “gute Toleranz (Boniturnoten von 6 bis 9 (insbesondere 7 bis 9) weisen auf eine gute Toleranz (insbesondere bei Kulturpflanzen) hin)” each time.
For the compound `CC(C)C1(C)NC(c2nc3c(cc2C(=O)O)C(C)(C)CCC3)=NC1=O` (stereo not drawn) [Verbindung 2.12, 2-(5-Isopropyl-5-methyl-1 H-imidazol-4-on-2-yl)-5,5-dimethyl-5,6,7,8-tetrahydrochinolin-3-carbonsäure], in the series with Untersaaten in Mais, the “"pre-post-Selektivität" bei Untersaaten in Mais” value was “ausgeprägter "pre-post-Selektivität"”.
For `CC1CCc2cc3c(nc2C1)C1=NC(C)(C(C)C)C(=O)N1C3=O` (stereo not drawn) [Verbindung 3.03, 2,9-Dimethyl-2-isopropyl-7,8,9,10-tetrahydro-3H,5H-imidazo[1',2':1,2]pyrrolo[3,4-b]chinolin-3,5-dion], in the series on Untersaaten in Mais, the “"pre-post-Selektivität" bei Untersaaten in Mais” value is listed as “ausgeprägter "pre-post-Selektivität"”.
